Test results as given in patent US20240335395A1, “COMPOSITIONS AND METHODS FOR PREVENTING AND/OR TREATING DISEASE ASSOCIATED WITH IL-23 EXPRESSION” (ALLSPIM, priority 2021, published 2024).

Key:
Solubility in water = format: physicochemical
[1] = tested on: MSU-induced leukocyte recruitment; test: MSU-induced leukocyte recruitment to the synovial cavity of knee joint; format: in vivo, mouse; settings: 20 h; 2,4-D 100 mg/kg, CLC 1 mg/kg, DEX 0.5 mg/kg
Procedure: 2,4-D, isolated and purified from Chloranthus spicatus (purity≥98%), was purchased from BOC Science (Shirley, NY). Colchicine (CLC) (purity≥96%) and dexamethasone (DEX) (purity≥98%) were purchased from Sigma. Mice (six per group) were treated with 2,4-D (100 mg/kg or 20 mg/kg, i.p.), CLC (1 mg/kg or 0.2 mg/kg, i.p.), DEX (0.5 mg/kg or 0.1 mg/kg, i.p.), or vehicle (20% polyoxyethylenesorbitan monooleate (Tween 80) plus PBS) 30 min before intra-articular stimulus with MSU (100 μg/10 μL, i.a.). Six mice with intra-articular injection with PBS alone served as a negative control.
Induction of MSU-Induced Knee Joint Inflammation. Male ICR (CD-1) mice (35-45 g, 10-12 weeks) were purchased from VitalRiver Inc (Beijing, China) and were kept in an animal care facility under controlled temperature of 21±1° C., humidity, and on a light/dark cycle, with ad libitum access to water and standard laboratory chow diet. Animal care and handling procedures were approved by the Animal Ethics Committee of GZUCM (Guangzhou University of Chinese Medicine). All efforts were made to minimize animal suffering and to reduce the number of animals used. Joint inflammation was induced by the intra-articular (i.a.) administration of MSU (200 μg/20 μl) into the right and left knee joints of mice under inhaled 3% isoflurane anesthesia. Control animals received an injection (i.a.) of sterile PBS (20 μL).
Histopathological Analysis. Knee joint was collected 20 h after MSU injection, fixed with 10% paraformaldehyde in PBS, and then decalcified for 10 days with EDTA and embedded in paraffin for histological analysis. […] Results are expressed as leukocytes infiltrate (cell/field) counted at the inflammatory foci within synovial cavity as indicative of synovitis. […]
Statistical Analysis. Data were analyzed using GraphPad Prism statistical software (GraphPad Software, Inc., United States-500.288, version 5.0). Results are presented as means±SEM or SD of measurements made on 6 mice per group, with statistical significance determined by two-way ANOVA, comparing each group to the control (“Model”) group. […]

[2] = tested on: IL-17/IL-23 and TNF signaling pathway-associated cytokine genes and chemokine genes; test: Transcription of IL-17/IL-23 and TNF signature genes in LPS-stimulated THP-1 cells (qPCR); format: cell-based, human; settings: 2 h; 2,4-D 5-20 μM, DEX 20-80 ng/ml
Procedure: Sample Collection and Preparation. THP-1 cells, a human leukemia monocyte-derived cell line, have been widely used as a model to study the modulation of the immune response and the function of monocytes and monocyte-derived macrophages. Here, lipopolysaccharide (LPS)-stimulated THP-1 cells were used as a model to study the cytokine storm in vitro (Chanput et al., 2014). THP-1 cells (purchased from American Type Culture Collection, Rockville, MD) were grown in RPMI 1640 culture medium (Gibco) supplemented with 10% fetal bovine serum (FBS) (Gibco, UK), 0.05 mM 2-mercaptoethanol, and 1% penicillin/streptomycin (Invitrogen) at 37° C. in 5% CO2 in a humidified incubator. Cultured cells were plated into culture plates in appropriate volumes with a cell density of 5×10^5 cells/ml. 2,4-D was purchased from Wuhan ChemFaces Biochemical Co., Ltd (Hubei, China) and tested for cytotoxicity in THP-1 cells overnight using a commercial MTT Cell Proliferation and Cytotoxicity Assay Kit (Beyotime, Shanghai, China). […]
Real-Time Quantitative PCR. Real-time quantitative PCR was performed in triplicate using the TB Green qPCR master mix (Takara Biomedical Technology Co., Ltd, Dalian, China) on an ABI 7500 Real-Time PCR System (Thermo, USA). […] The ΔΔCT method was used to quantify relative mRNA levels as described above in Example 1 (Applied Biosystems). Data are expressed as mean±SD. […]

## COc1cc(O)c(OC)c(O)c1C(=O)/C=C/c1ccccc1 [2,4-D, 2′,4′-dihydroxy-3′,6′-dimethoxychalcone]
Solubility in water
  solubility in water: Low solubility
[1]
  reduction of MSU-induced leukocyte recruitment: 4.5 fold
[2]
  suppression of transcription of IL-17/IL-23 and TNF signatures: 63-143 fold
